# Laboratory results as given in patent publication US10017492B2 (KANGPU BIOPHARMACEUTICALS, LTD., priority 2014, dated 2018).
# pIC50: −log10 of the molar value.
# Columns and labels:
# TNF-α = TNF-α activity inhibiting assay (LPS-stimulated peripheral blood, ELISA); type: cell-based, human; conditions: Homo sapiens, compound 100 nM, diluted peripheral blood of healthy volunteers, LPS 10 ng/mL, 6 hours, read-out: Inhibitory Rate on TNF-α (%)
# Protocol: TNF-α Activity Inhibiting Assay
# Peripheral blood from healthy volunteers was collected and collected with EDTA anticoagulant tubes. After being diluted 5-fold with 1640 medium (Gibco, catalog number 11875-093, USA), the blood was added to 96-well cell culture plates (Costar, catalog number 3599, USA) and then treated with 10 μL solution of the compound of general formula (I) of the present invention in DMSO (Sigma, catalog number D2650, USA). The final concentration of the compound was 100 nM, and the final concentration of DMSO was 0.2%. After incubation for 60 minutes in an incubator at 37° C. under 5% CO2, 10 μL LPS (Sigma, catalog number L-2880, USA) was added to the reaction system, and the final concentration was 10 ng/mL. After further culturing for 6 hours in the incubator at 37° C. under 5% CO2, the supernatant was collected. The content of TNF-α was determined by ELISA (BD Biosciences, catalog number 555212, USA). Absorbance was detected at OD450 nm with a microplate reader, with OD 650 nm as reference. The control, a solution containing 0.2% DMSO medium, was as 0% inhibition. Raw data and standard curves were recorded. The four-parameter drug inhibition curve was plotted by XL-fit software and the inhibition rate of each compound was calculated, as shown in Table 1.
# [1] = test system: MM.1S cells (myeloma cells); test: Cell proliferation assay (MTS), MM.1S myeloma cells; type: cell-based; conditions: Homo sapiens, MM1.S, 72 hours, read-out: IC50 values of MMIS Inhibition
# Protocol: MM.1S cells (myeloma cells) (ATCC, catalog number CRL-2974) were seeded at 1.8×10^3 per well to a 96-well culture plate containing […] (Gibco, catalog number A10491-01), and were incubated in an incubator for 24 hours at 37° C. under 5% CO2. Compounds were prepared as 20 mM stock solutions with DMSO (Sigma, catalog number D2650), and were diluted with the medium to the desired concentration (the final concentration of DMSO was 0.5%) and then were added to each well, incubated in an incubator for 72 hours at 37° C. under 5% CO2. Then, 20 μL MTS (Promega, catalog number G3581) was added to each well, and further incubated for 1-4 hours in an incubator at 37° C. under 5% CO2. OD490 nm was detected with OD650 nm as reference. The control, a solution containing 0.5% DMSO medium, was as 0% inhibition. GraphPad Prism 5 was used, slope was allowed to change to make the dose-effect curve and IC50 values were calculated, shown in table 2 for details.
Compound,inhibition at 0.1 µM (TNF-α) [%],pIC50 [1]
[2H]C1(N2Cc3c(N)cc(F)cc3C2=O)CCC(=O)NC1=O (racemic) [Compound I-01],> 50,–
"COc1cccc(CNc2cccc3c2CN(C2CCC(=O)NC2=O)C3=O)c1F (stereo not shown) [Compound A196, 3-(4-((2-fluoro-3-methoxybenzyl)amino)-1-oxoisoindolin-2-yl)piperidine-2,6-dione]",≥ 50,> 6.52
"COc1cccc(CNc2cc(F)cc3c2CN(C2CCC(=O)NC2=O)C3=O)c1F (stereo not shown) [Compound A318, 3-(6-fluoro-4-((2-fluoro-3-methoxybenzyl)amino)-1-oxoisoindolin-2-yl)-piperidine-2,6-dione]",< 50,≤ 6.52
"COc1ccc(CNc2cc(F)cc3c2CN(C2CCC(=O)NC2=O)C3=O)c(F)c1 (stereo not shown) [Compound A319, 3-(6-fluoro-4-((2-fluoro-4-methoxybenzyl)amino)-1-oxoisoindolin-2-yl)-piperidine-2,6-dione]",< 50,≤ 6.52
"COc1ccc(F)c(CNc2cc(F)cc3c2CN(C2CCC(=O)NC2=O)C3=O)c1 (stereo not shown) [Compound A320, 3-(6-fluoro-4-((2-fluoro-5-methoxybenzyl)amino)-1-oxoisoindolin-2-yl)-piperidine-2,6-dione]",< 50,≤ 6.52
"O=C1CCC(N2Cc3c(OCc4ccc(CN5CCOCC5)cc4)cc(F)cc3C2=O)C(=O)N1 (stereo not shown) [Compound A327, 3-(6-fluoro-4-((4-(morpholinomethyl)benzyl)oxy)-1-oxoisoindolin-2-yl)-piperidine-2,6-dione]",< 50,> 6.52
"COc1ccc(F)c(COc2cccc3c2CN(C2CCC(=O)NC2=O)C3=O)c1 (stereo not shown) [Compound A331, 3-(4-((2-fluoro-5-methoxybenzyl)oxy)-1-oxoisoindolin-2-yl)piperidine-2,6-dione]",≥ 50,> 6.52
"O=C1CCC(N2Cc3c(OCc4ccccc4F)cccc3C2=O)C(=O)N1 (stereo not shown) [Compound A336, 3-[4-(2-Fluoro-benzyloxy)-1-oxo-1,3-dihydro-isoindol-2-yl]-piperidine-2,6-dione]",–,> 6.52
"COc1ccc(F)c(CNc2cccc3c2CN([C@H]2CCC(=O)NC2=O)C3=O)c1 [Compound A340, (S)-3-(4-((2-fluoro-5-methoxybenzyl)amino)-1-oxoisoindolin-2-yl)piperidine-2,6-dione]",< 50,> 6.52
"COc1ccc(F)c(CNc2cccc3c2CN([C@@H]2CCC(=O)NC2=O)C3=O)c1 [Compound A341, (R)-3-(4-((2-fluoro-5-methoxybenzyl)amino)-1-oxoisoindolin-2-yl)piperidine-2,6-dione]",< 50,> 6.52
"[2H][C@@]1(N2Cc3c(NCc4cc(OC)ccc4F)cccc3C2=O)CCC(=O)NC1=O [Compound A342, (R)-3-deuterium-3-(4-((2-fluoro-5-methoxybenzyl)amino)-1-oxoisoindolin-2-yl)piperidine-2,6-dione]",< 50,≤ 6.52
"[2H][C@]1(N2Cc3c(NCc4cc(OC)ccc4F)cccc3C2=O)CCC(=O)NC1=O [Compound A343, (S)-3-deuterium-3-(4-((2-fluoro-5-methoxybenzyl)amino)-1-oxoisoindolin-2-yl)piperidine-2,6-dione]",≥ 50,> 6.52
"O=C1CC[C@H](N2Cc3c(NCc4ccc(CN5CCOCC5)cc4)cccc3C2=O)C(=O)N1 [Compound A346, (S)-3-(4-((4-(morpholinomethyl)benzyl)amino)-1-oxoisoindolin-2-yl) piperidine-2,6-dione]",≥ 50,> 6.52
"COc1ccc(CNc2cccc3c2CN(C2CCC(=O)NC2=O)C3=O)cc1OC (stereo not shown) [Compound A349, 3-(4-((3,4-dimethoxybenzyl)amino)-1-oxoisoindolin-2-yl)piperidine-2,6-dione]",< 50,≤ 6.52
"Cc1ccc(CNc2cccc3c2CN(C2CCC(=O)NC2=O)C3=O)cc1C (stereo not shown) [Compound A350, 3-(4-((3,4-dimethylbenzyl)amino)-1-oxoisoindolin-2-yl)piperidine-2,6-dione]",< 50,> 6.52
"Cc1cc(CNc2cccc3c2CN(C2CCC(=O)NC2=O)C3=O)ccc1F (stereo not shown) [Compound A351, 3-(4-((4-fluoro-3-methylbenzyl)amino)-1-oxoisoindolin-2-yl)piperidine-2,6-dione]",< 50,> 6.52
"Cc1ccc(CNc2cccc3c2CN(C2CCC(=O)NC2=O)C3=O)cc1Cl (stereo not shown) [Compound A352, 3-(4-((3-chloro-4-methylbenzyl)amino)-1-oxoisoindolin-2-yl)piperidine-2,6-dione]",< 50,> 6.52
"Cc1ccc(CNc2cccc3c2CN(C2CCC(=O)NC2=O)C3=O)cc1F (stereo not shown) [Compound A353, 3-(4-((3-fluoro-4-methylbenzyl)amino)-1-oxoisoindolin-2-yl)piperidine-2,6-dione]",< 50,> 6.52
"COc1ccc(CNc2cccc3c2CN(C2CCC(=O)NC2=O)C3=O)cc1Cl (stereo not shown) [Compound A354, 3-(4-((3-chloro-4-methoxybenzyl)amino)-1-oxoisoindolin-2-yl)piperidine-2,6-dione]",< 50,> 6.52
"COc1cc(CNc2cccc3c2CN(C2CCC(=O)NC2=O)C3=O)cc(OC)c1 (stereo not shown) [Compound A355, 3-(4-((3,5-dimethoxybenzyl)amino)-1-oxoisoindolin-2-yl)piperidine-2,6-dione]",< 50,≤ 6.52
"O=C1CCC(N2Cc3c(NCc4cccc(O)c4F)cccc3C2=O)C(=O)N1 (stereo not shown) [Compound A359, 3-(4-((2-fluoro-3-hydroxybenzyl)amino)-1-oxoisoindolin-2-yl)piperidine-2,6-dione]",≥ 50,> 6.52
"N#Cc1cccc(CNc2cccc3c2CN(C2CCC(=O)NC2=O)C3=O)c1F (stereo not shown) [Compound A360, 3-(((2-(2,6-dioxopiperidin-3-yl)-1-oxoisoindolin-4-yl)amino)methyl)-2-fluorobenzonitrile]",< 50,> 6.52
"NC(=O)c1cccc(CNc2cccc3c2CN(C2CCC(=O)NC2=O)C3=O)c1F (stereo not shown) [Compound A361, 3-(((2-(2,6-Dioxopiperidin-3-yl)-1-oxoisoindolin-4-yl)amino)methyl)-2-fluorobenzamide]",≥ 50,> 6.52
"CNC(=O)c1cccc(CNc2cccc3c2CN(C2CCC(=O)NC2=O)C3=O)c1F (stereo not shown) [Compound A362, 3-(((2-(2,6-Dioxopiperidin-3-yl)-1-oxoisoindolin-4-yl)amino)methyl)-2-fluoro-N-methylbenzamide]",< 50,≤ 6.52
"CN(C)CCOc1ccc(F)c(CNc2cccc3c2CN(C2CCC(=O)NC2=O)C3=O)c1 (stereo not shown) [Compound A363, 3-(4-((5-(2-(Dimethylamino)ethoxy)-2-fluorobenzyl)amino)-1-oxoisoindolin-2-yl)piperidine-2,6-dione]",< 50,≤ 6.52
"O=C1CCC(N2Cc3c(NCc4cc(O)ccc4F)cccc3C2=O)C(=O)N1 (stereo not shown) [Compound A364, 3-(4-((2-fluoro-5-hydroxybenzyl)amino)-1-oxoisoindolin-2-yl)piperidine-2,6-dione]",< 50,> 6.52
"Cc1cccc(CNc2cccc3c2CN(C2CCC(=O)NC2=O)C3=O)c1F (stereo not shown) [Compound A367, 3-(4-((2-fluoro-3-methylbenzyl)amino)-1-oxoisoindolin-2-yl)piperidine-2,6-dione]",≥ 50,> 6.52
"O=C1CCC(N2Cc3c(NCc4cc(OCCN5CCOCC5)ccc4F)cccc3C2=O)C(=O)N1 (stereo not shown) [Compound A368, 3-(4-((2-fluoro-5-(2-morpholinoethoxy)benzyl)amino)-1-oxoisoindolin-2-yl)piperidine-2,6-dione]",≥ 50,> 6.52
"O=C1CCC(N2Cc3c(NCc4cc(OCCCN5CCOCC5)ccc4F)cccc3C2=O)C(=O)N1 (stereo not shown) [Compound A369, 3-(4-((2-fluoro-5-(3-morpholinopropoxy)benzyl)amino)-1-oxoisoindolin-2-yl)piperidine-2,6-dione]",≥ 50,> 6.52
"COCCOc1ccc(F)c(CNc2cccc3c2CN(C2CCC(=O)NC2=O)C3=O)c1 (stereo not shown) [Compound A370, 3-(4-((2-fluoro-5-(2-methoxyethoxy)benzyl)amino)-1-oxoisoindolin-2-yl)piperidine-2,6-dione]",< 50,≤ 6.52
